The values below come from patent US10000507B2, “Furo- and thieno-pyridine carboxamide compounds useful as pim kinase inhibitors” (Incyte Corporation, priority 2013, dated 2018).

What all share (format): biochemical
Assay [1] deals with Pim-3 (Homo sapiens (Human), UniProt Q86V86). Put plainly: Pim-3 kinase assay. The note with it: 1 mM ATP, biotin-labeled BAD peptide substrate; read-out: Pim3 IC50. An outline of the steps: (§1)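 Biotin-BAD peptide ([…]) phosphorylated with 1 mM ATP by 2.5 pM Pim-1 or 1.25 pM Pim-3, 1 h at 25 °C in Tris pH 7.5, MgCl2, DTT buffer. EDTA stop with anti-phospho-BAD (Ser112) antibody and AlphaScreen streptavidin donor/Protein-A acceptor beads; signal read after 1 h dark incubation.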

For assay [2], the target named is Pim-2 (Homo sapiens (Human), UniProt Q9P1W9). Put plainly: Pim-2 kinase assay. The note with it: 1 mM ATP, fluorescein-labeled CREBtide peptide substrate; read-out: Pim2 IC50. An outline of the steps: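 Phosphorylated CREBtide was detected by terbium anti-pSer133 antibody TR-FRET after EDTA quench and 30 min at room temperature. Reactions ran 2 h at 25 °C with 1 mM ATP, 0.05 μM fluorescein-labelled substrate and 1 nM enzyme in pH 7.5 Tris buffer.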

In assay [3] the target is Pim-1 (Homo sapiens (Human), UniProt P11309). Put plainly: Pim-1 kinase assay. The note with it: 1 mM ATP, biotin-labeled BAD peptide substrate; read-out: Pim1 IC50. In outline: as §1

pIC50: −log10 of the molar value. Where only a bound is given, the exact number is not on record here.

Pim-2, sequence (Q9P1W9 whole entry): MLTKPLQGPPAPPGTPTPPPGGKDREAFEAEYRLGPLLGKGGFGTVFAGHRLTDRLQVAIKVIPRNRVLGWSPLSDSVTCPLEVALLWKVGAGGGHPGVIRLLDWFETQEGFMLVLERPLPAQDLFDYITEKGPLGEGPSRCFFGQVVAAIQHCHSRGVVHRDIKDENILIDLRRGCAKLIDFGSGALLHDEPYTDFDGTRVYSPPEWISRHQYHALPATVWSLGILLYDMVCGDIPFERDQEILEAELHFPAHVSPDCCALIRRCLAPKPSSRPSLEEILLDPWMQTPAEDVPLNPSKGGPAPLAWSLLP
Pim-1, sequence (P11309 whole entry): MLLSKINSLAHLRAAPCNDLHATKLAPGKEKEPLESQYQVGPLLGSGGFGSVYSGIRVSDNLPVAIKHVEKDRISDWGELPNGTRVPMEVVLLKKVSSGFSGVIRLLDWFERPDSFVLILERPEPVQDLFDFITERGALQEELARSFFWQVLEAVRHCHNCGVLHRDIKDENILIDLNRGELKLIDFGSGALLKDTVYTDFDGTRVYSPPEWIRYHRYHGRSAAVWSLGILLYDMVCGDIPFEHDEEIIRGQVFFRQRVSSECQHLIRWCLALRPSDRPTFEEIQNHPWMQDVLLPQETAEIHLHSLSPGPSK

As to `CCOC1CCN(Cc2cnc3c(C(=O)Nc4cnccc4N4C[C@@H](N)C[C@@H](C(F)(F)F)C4)c(N)oc3c2)C1` (stereo partly drawn) [Example 104, 2-Amino-N-{4-[(3S,5R)-3-amino-5-(trifluoromethyl)piperidin-1-yl]pyridin-3-yl}-6-[(3-ethoxypyrrolidin-1-yl)methyl]furo[3,2-b]pyridine-3-carboxamide], the values for the pIC50 in assay [1], in assay [2] and in assay [3] were at least 8.00, 7.00 to 8.00 and at least 8.00, respectively.
Consider `CCCc1cnc2c(C(=O)Nc3cnn(C)c3N3CCCC(N)CC3)c(N)oc2c1` (stereo not drawn) [Example 59, 2-amino-N-[5-(4-aminoazepan-1-yl)-1-methyl-1H-pyrazol-4-yl]-6-propylfuro[3,2-b]pyridine-3-carboxamide], for which the pIC50 (as a rule, the IC50 on a negative log10 scale, so that one unit is a factor of ten) in assay [1] was at least 8.00; in assay [2] it was 7.00 to 8.00; in assay [3], at least 8.00.
As for `C[C@@H]1C[C@H](N)C[C@H](c2ccncc2NC(=O)c2c(N)oc3cc(C4CC4)cnc23)C1` [Example 133, 2-Amino-N-{4-[(1R,3S,5S)-3-amino-5-methylcyclohexyl]pyridin-3-yl}-6-cyclopropylfuro[3,2-b]pyridine-3-carboxamide], the pIC50 in assay [1], in assay [2] and in assay [3] was at least 8.00 each time.
Regarding `Nc1oc2cc(CCN3CC[C@@H](F)C3)cnc2c1C(=O)Nc1cnccc1N1C[C@@H](N)C[C@@H](C(F)(F)F)C1` [Example 138, 2-Amino-N-{4-[(3S,5R)-3-amino-5-(trifluoromethyl)piperidin-1-yl]pyridin-3-yl}-6-{2-[(3R)-3-fluoropyrrolidin-1-yl]ethyl}furo[3,2-b]pyridine-3-carboxamide], the pIC50 in assay [1], in assay [2] and in assay [3] was at least 8.00 each time.
As for `COc1ccnc2c(C(=O)Nc3cnccc3N3CCC[C@H](N)C3)c(N)sc12` [Example 16, 2-Amino-N-{4-[(3S)-3-aminopiperidin-1-yl]pyridin-3-yl}-7-methoxythieno[3,2-b]pyridine-3-carboxamide], the pIC50 is at least 8.00 in assay [1], 6.00 to 7.00 in assay [2] and at least 8.00 in assay [3].
For `Nc1sc2c(C(F)(F)F)ccnc2c1C(=O)Nc1cnccc1N1CCC[C@H](N)C1` [Example 38, 2-Amino-N-{4-[(3S)-3-aminopiperidin-1-yl]pyridin-3-yl}-7-trifluoromethyl-thieno[3,2-b]pyridine-3-carboxamide], the pIC50 was at least 8.00 in assay [1], 6.00 to 7.00 in assay [2] and at least 8.00 in assay [3].
As to `Nc1oc2c(Cl)ccnc2c1C(=O)Nc1cnccc1N1CCC[C@H](N)C1` [Example 81, 2-Amino-N-{4-[(3S)-3-aminopiperidin-1-yl]pyridin-3-yl}-7-chloro-furo[3,2-b]pyridine-3-carboxamide], the pIC50 in assay [1], in assay [2] and in assay [3] was at least 8.00 throughout.
For the compound `CCc1cnc2c(C(=O)Nc3cnccc3N3C[C@H](C)C[C@H](N)C3)c(N)oc2c1` [Example 117, 2-Amino-N-{4-[(3S,5R)-3-amino-5-methylpiperidin-1-yl]pyridin-3-yl}-6-ethylfuro[3,2-b]pyridine-3-carboxamide], the pIC50 in assay [1], in assay [2] and in assay [3] was at least 8.00 in each case.
Regarding `Nc1sc2cccnc2c1C(=O)Nc1cnccc1N1CCC[C@H](N)C1` [Example 6, 2-Amino-N-{4-[(3S)-3-aminopiperidin-1-yl]pyridin-3-yl}thieno[3,2-b]pyridine-3-carboxamide], the pIC50 in assay [1] was at least 8.00; in assay [2] it was 6.00 to 7.00; in assay [3], at least 8.00.
On to `Nc1oc2cc(C3CCOC3)cnc2c1C(=O)Nc1cnccc1N1C[C@@H](N)C[C@@H](C(F)(F)F)C1` (stereo partly drawn) [Example 123, 2-Amino-N-{4-[(3S,5R)-3-amino-5-(trifluoromethyl)piperidin-1-yl]pyridin-3-yl}-6-(tetrahydrofuran-3-yl)furo[3,2-b]pyridine-3-carboxamide], for which the pIC50 in assay [1], in assay [2] and in assay [3] was at least 8.00 throughout.
As for `C[C@H]1C[C@@H](c2ccncc2NC(=O)c2c(N)oc3cccnc23)C[C@@H](N)[C@]1(C)O` [Example 83, 2-Amino-N-(4-((1R,3R,4R,5S)-3-amino-4-hydroxy-4,5-dimethylcyclohexyl)pyridin-3-yl)furo[3,2-b]pyridine-3-carboxamide], the pIC50 in assay [1] is at least 8.00; in assay [2], 6.00 to 7.00; in assay [3], at least 8.00.
In the case of `C[C@@H]1C[C@H](N)CN(c2ccncc2NC(=O)c2c(N)oc3cc(-c4c(F)cccc4F)cnc23)C1` [Example 119, 2-Amino-N-{4-[(3S,5R)-3-amino-5-methylpiperidin-1-yl]pyridin-3-yl}-6-(2,6-difluorophenyl)furo[3,2-b]pyridine-3-carboxamide], the results for the pIC50 in assay [1], in assay [2] and in assay [3] were at least 8.00, 7.00 to 8.00 and at least 8.00, respectively.
With `C[C@@H]1C[C@H](N)CN(c2ccncc2NC(=O)c2c(N)oc3cc(Cl)cnc23)C1` [Example 72, 2-Amino-N-{4-[(3S,5R)-3-amino-5-methyl-piperidin-1-yl]pyridin-3-yl}-6-chlorofuro[3,2-b]pyridine-3-carboxamide], the results for the pIC50 in assay [1], in assay [2] and in assay [3] were at least 8.00, 7.00 to 8.00 and at least 8.00, respectively.
For `CNC(=O)c1ccc(-c2cnc3c(C(=O)Nc4cnccc4N4C[C@H](C)C[C@H](N)C4)c(N)oc3c2)cn1` [Example 127, 2-Amino-N-(4-((3S,5R)-3-amino-5-methylpiperidin-1-yl)pyridin-3-yl)-6-(6-(methylcarbamoyl)pyridin-3-yl)furo[3,2-b]pyridine-3-carboxamide], the figures for the pIC50 in assay [1], in assay [2] and in assay [3] were at least 8.00, 7.00 to 8.00 and at least 8.00, respectively.
In the case of `Cn1ncc(NC(=O)c2c(N)sc3cc(-c4nccs4)cnc23)c1N1CCCC(N)CC1` (stereo not drawn) [Example 30, 2-Amino-N-[5-(4-aminoazepan-1-yl)-1-methyl-1H-pyrazol-4-yl]-6-(1,3-thiazol-2-yl)-thieno[3,2-b]pyridine-3-carboxamide], the pIC50 was at least 8.00 in assay [1], 7.00 to 8.00 in assay [2] and at least 8.00 in assay [3].
Turning to `Nc1oc2cc(C3CCC3)cnc2c1C(=O)Nc1cnccc1N1C[C@@H](N)[C@H](O)[C@@H](C2CC2)C1` [Example 125, 2-Amino-N-{4-[(3R,4R,5S)-3-amino-5-cyclopropyl-4-hydroxypiperidin-1-yl]pyridin-3-yl}-6-cyclobutylfuro[3,2-b]pyridine-3-carboxamide], the pIC50 in assay [1], in assay [2] and in assay [3] was at least 8.00 throughout.
For the compound `Nc1sc2cccnc2c1C(=O)Nc1cnccc1N1CCCC(N)CC1` (stereo not drawn) [Example 9, 2-Amino-N-[4-(4-aminoazepan-1-yl)pyridin-3-yl]thieno[3,2-b]pyridine-3-carboxamide], the pIC50 was under 7.40 in assay [1], under 5.70 in assay [2] and 7.00 to 8.00 in assay [3].
For `Cn1ncc(NC(=O)c2c(N)oc3cccnc23)c1N1CCCC(N)CC1` (stereo not drawn) [Example 46, 2-Amino-N-[5-(4-aminoazepan-1-yl)-1-methyl-1H-pyrazol-4-yl]furo[3,2-b]pyridine-3-carboxamide] the same measures were 7.00 to 8.00, under 5.70 and at least 8.00.
